SMILES strings stand for the structures.

This data set in a line: maxima of UV-A and UV-B absorption of quinoxaline derivatives in 2-propanol. The format is physicochemical. The note with it: 1 mg of substance per 100 ml of solvent; for UV-A (400 320 nm) Max. abs.: absorbance at UV-A maximum; for UV-B (280 320 nm) Max. abs.: absorbance at UV-B maximum; for UV-A (400 320 nm) λ[nm]: wavelength of UV-A maximum; for UV-B (280 320 nm) λ[nm]: wavelength of UV-B maximum. The procedure:
The measurement was carried out in 2-propanol at a concentration of 1 mg of substance per 100 ml of solvent.

With `c1ccc(-c2cc3nc4ccccc4nc3[nH]2)cc1`, the “UV-A (400 320 nm) Max. abs.” value is given as 0.7158, the “UV-B (280 320 nm) Max. abs.” value turned out to be 0.8710, the “UV-A (400 320 nm) λ[nm]” value amounted to 367.0 nm and the “UV-B (280 320 nm) λ[nm]” value worked out at 268.0 nm.

Turning to `CC(=O)c1ccc(-n2c([SiH2]C(C)C)cc3nc4ccccc4nc32)cc1`, the “UV-A (400 320 nm) Max. abs.” value amounted to 0.5774, the “UV-B (280 320 nm) Max. abs.” value came out at 0.4246, the “UV-A (400 320 nm) λ[nm]” value is reported as 403.0 nm and the “UV-B (280 320 nm) λ[nm]” value came to 318.0 nm.

With `CC(C)(C)c1nc2nc3ccccc3nc2[nH]1`, the “UV-A (400 320 nm) Max. abs.” value is 0.6290 and the “UV-A (400 320 nm) λ[nm]” value came to 330.0 nm.

As to `CC(=O)c1ccc(-n2c(-c3ccccc3)cc3nc4ccccc4nc32)cc1`, the “UV-A (400 320 nm) Max. abs.” value is given as 0.4067 and the “UV-A (400 320 nm) λ[nm]” value is on record as 359.0 nm.

In the case of `Cc1nc2nc3ccccc3nc2[nH]1`, the “UV-A (400 320 nm) Max. abs.” value is 0.5824 and the “UV-A (400 320 nm) λ[nm]” value is 327.5 nm.

As for `c1ccc2nc3[nH]ccc3nc2c1`, the “UV-A (400 320 nm) Max. abs.” value is on record as 0.5381 and the “UV-A (400 320 nm) λ[nm]” value was found to be 338.0 nm.

Consider `FC(F)(F)c1nc2nc3ccccc3nc2[nH]1`, for which the “UV-A (400 320 nm) Max. abs.” value is listed as 0.4875 and the “UV-A (400 320 nm) λ[nm]” value is reported as 327.5 nm.

Regarding `FC(F)(F)c1cc(-c2nc3nc4ccccc4nc3[nH]2)cc(C(F)(F)F)c1`, the “UV-A (400 320 nm) Max. abs.” value stood at 0.7037 and the “UV-A (400 320 nm) λ[nm]” value was determined as 358.0 nm.

On to `c1ccc2nc3[nH]cnc3nc2c1`, for which the “UV-A (400 320 nm) Max. abs.” value is on record as 0.5227 and the “UV-A (400 320 nm) λ[nm]” value came to 328.0 nm.

Turning to `O=C(O)c1ccc(-n2c(-c3ccccc3)cc3nc4ccccc4nc32)cc1`, the “UV-A (400 320 nm) Max. abs.” value came to 0.3685 and the “UV-A (400 320 nm) λ[nm]” value turned out to be 358.0 nm.

These data come from patent US7101537B2, “Tricyclic quinoxaline and quinoline derivatives as a UV filter” (Merck Patentgesellschaft, priority 2001, dated 2006).
